Test system: PC3 cells
Experiment: analysis of apoptosis, Annexin V staining
Type: cell-based
Conditions: 10 μM, 48 h
Method: Analysis of apoptosis: For Annexin V staining of apoptotic cells, PC3 cells were seeded at 4×10^5 cells per 6 cm dish in triplicate. Cells were incubated 48 h in the presence or absence of 10 μM 64 and were then detached with 0.1 % trypsin–EDTA, resuspended in Annexin buffer (10 mM HEPES, pH 7.4, 140 mM NaCl, 2.5 mM CaCl2), and stained for Annexin V (FITC Annexin V #640906, BioLegend, USA). Samples were analyzed by using a FACS‐Calibur flow cytometer (Becton Dickinson Immunocytometry Systems, San Jose, USA).

## COC(=O)c1cccc(Cn2cc(-c3cccc4c(=O)cc(N5CCOCC5)[nH]c34)nn2)c1 [Compound 64, Methyl 3‐{[4‐(2‐morpholino‐4‐oxo‐1,4‐dihydroquinolin‐8‐yl)‐1H‐1,2,3‐triazol‐1‐yl]methyl}benzoate]
  effect on cell apoptosis: did not show any effect in inducing cell apoptosis
